Reference: patent US5061794A, “Cephalosporin derivatives, and antibacterial agents” (priority 1986, dated 1991)
Where two headings read alike, the source gives them in different places.

Tests used:
[1] = system: E. coli CSH(RE45); test: microbe, parasite or virus in culture; format: cell-based; conditions: Escherichia coli, 16 h, read-out: Minimum Inhibitory Concentration (MIC), *E. coli CSH(RE45), lactamase-producing strain; 10^6 CFU/ml
How it was run: (§1)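 Agar dilution: MH agar + graded drug conc.; inoculum 10^6 CFU/ml (overnight MH broth culture, one loopful); 37° C., 16 h; MIC, μg/ml.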

[2] = system: E. coli CSH2 (RK1); test: microbe, parasite or virus in culture; format: cell-based; conditions: Escherichia coli, 16 h, read-out: Minimum Inhibitory Concentration (MIC), *E. coli CSH2 (RK1), lactamase-producing strain; 10^6 CFU/ml
How it was run: as §1

[3] = system: E. cloacae 963; test: in vitro antibacterial activity, agar plate dilution method (MIC); format: cell-based; conditions: 10^6 CFU/ml
How it was run: as §1

[4] = system: E. cloacae Nek 39; test: as above; format: cell-based; conditions: Enterobacter cloacae, NEK39, 16 h, read-out: Minimum Inhibitory Concentration (MIC), *E. cloacae Nek 39, lactamase-producing strain; 10^6 CFU/ml
How it was run: as §1

[5] = system: E. coli GN5482; test: as above; format: cell-based; conditions: Escherichia coli, GN5482, 16 h, read-out: Minimum Inhibitory Concentration (MIC)
How it was run: as §1

[6] = system: E. coli NIHJ JC2; test: as above; format: cell-based; conditions: Escherichia coli, NIHJJC2, 16 h, read-out: Minimum Inhibitory Concentration (MIC), E. coli NIHJ JC2, 10^6 CFU/ml, 37° C.
How it was run: as §1

[7] = system: K. oxytoca GN10650; test: as above; format: cell-based; conditions: Klebsiella oxytoca, GN10650, 16 h, read-out: Minimum Inhibitory Concentration (MIC), *K. oxytoca GN10650, lactamase-producing strain; 10^6 CFU/ml
How it was run: as §1

[8] = system: K. pneumoniae No. 42; test: as above; format: cell-based; conditions: Klebsiella pneumoniae, NO.42, 16 h, read-out: Minimum Inhibitory Concentration (MIC), *K. pneumoniae No. 42, lactamase-producing strain; 10^6 CFU/ml
How it was run: as §1

[9] = system: K. pneumoniae PCI-602; test: as above; format: cell-based; conditions: Klebsiella pneumoniae, PCI602, 16 h, read-out: Minimum Inhibitory Concentration (MIC), K. pneumoniae PCI-602; 10^6 CFU/ml
How it was run: as §1

[10] = system: M. morganii GN5407; test: as above; format: cell-based; conditions: Morganella morganii, GN5407, 16 h, read-out: Minimum Inhibitory Concentration (MIC), *M. morganii GN5407, lactamase-producing strain; 10^6 CFU/ml
How it was run: as §1

[11] = system: P. vulgaris HX-19; test: as above; format: cell-based; conditions: Proteus vulgaris, HX19, 16 h, P. vulgaris HX-19; 10^6 CFU/ml; read-out: Minimum Inhibitory Concentration (MIC)
How it was run: as §1

[12] = system: P. vulgaris No. 33; test: as above; format: cell-based; conditions: Proteus vulgaris, NO.33, 16 h, read-out: Minimum Inhibitory Concentration (MIC), *P. vulgaris No. 33, lactamase-producing strain; 10^6 CFU/ml
How it was run: as §1

[13] = system: S. aureus 209P NIHJ-JC1; test: as above; format: cell-based; conditions: Staphylococcus aureus, 16 h
How it was run: as §1

[14] = system: S. marcescens IAM 1184; test: as above; format: cell-based; conditions: Serratia marcescens, IAM1184, 16 h, S. marcescens IAM 1184; 10^6 CFU/ml; read-out: Minimum Inhibitory Concentration (MIC)
How it was run: as §1

[15] = system: S. marcescens No. 16-2; test: as above; format: cell-based; conditions: Serratia marcescens, NO.162, 16 h
How it was run: as §1

[16] = system: Ps. aeruginosa AK 109; test: as above; format: cell-based, Pseudomonas aeruginosa; conditions: Pseudomonas aeruginosa, AK109, 16 h, read-out: Minimum Inhibitory Concentration (MIC)
How it was run: as §1

[17] = system: Ps. aeruginosa AKR17; test: as above; format: cell-based, Pseudomonas aeruginosa; conditions: Pseudomonas aeruginosa, read-out: Minimum Inhibitory Concentration (MIC)
How it was run: as §1

[18] = system: Ps. aeruginosa IF03445; test: as above; format: cell-based, Pseudomonas aeruginosa; conditions: Pseudomonas aeruginosa, 10^6 CFU/ml
How it was run: as §1

[19] = system: Ps. cepacia 23; test: as above; format: cell-based, Pseudomonas cepacia; conditions: Burkholderia cepacia, 16 h; Ps. cepacia 23; 10^6 CFU/ml; read-out: Minimum Inhibitory Concentration (MIC)
How it was run: as §1

[20] = system: A. calcoaceticus No. 4; test: as above; format: cell-based, Acinetobacter calcoaceticus; conditions: Acinetobacter calcoaceticus, NO.4, 16 h, 10^6 CFU/ml
How it was run: as §1

[21] = Enterobacter cloacae, 16 h, E. cloacae 963, read-out: Minimum Inhibitory Concentration (MIC)
[22] = read-out: Minimum Inhibitory Concentration (MIC), S. aureus 209P NIHJ-JC1, 10^6 CFU/ml, 37° C., 16 hours
[23] = read-out: Minimum Inhibitory Concentration (MIC), *S. marcescens No. 16-2, lactamase-producing strain, 10^6 CFU/ml
[24] = Ps. aeruginosa AK 109, 10^6 CFU/ml
[25] = 16 h, Ps. aeruginosa AKR17, 10^6 CFU/ml
[26] = 16 h, Ps. aeruginosa IF03445, read-out: Minimum Inhibitory Concentration (MIC)
[27] = read-out: Minimum Inhibitory Concentration (MIC), A. calcoaceticus No. 4
[28] = IF03445, 16 h, read-out: Minimum Inhibitory Concentration (MIC), Ps. aeruginosa IF03445
[29] = read-out: Minimum Inhibitory Concentration (MIC)
[30] = A. calcoaceticus No. 4, read-out: Minimum Inhibitory Concentration (MIC)

| SMILES | MIC [1] [µg/mL] | MIC [2] [µg/mL] | MIC [3, 21] [µg/mL] | MIC [4] [µg/mL] | MIC [5] [µg/mL] | MIC [6] [µg/mL] | MIC [7] [µg/mL] | MIC [8] [µg/mL] | MIC [9] [µg/mL] | MIC [10] [µg/mL] | MIC [11] [µg/mL] | MIC [12] [µg/mL] | MIC [13, 22] [µg/mL] | MIC [14] [µg/mL] | MIC [15, 23] [µg/mL] | MIC [16, 24] [µg/mL] | MIC [17, 25] [µg/mL] | MIC [19] [µg/mL] | MIC [20, 27] [µg/mL] | MIC [18, 28] [µg/mL] | further results |
| --- | --- | --- | --- | --- | --- | --- | --- | --- | --- | --- | --- | --- | --- | --- | --- | --- | --- | --- | --- | --- | --- |
| CCO/N=C(\C(=O)N[C@@H]1C(=O)N2C(C(=O)O)=C(CSc3nnc(-c4ccc(OC(C)=O)c(OC(C)=O)c4)o3)CS[C@H]12)c1csc(N)n1 [Ex. 6, sodium 3-[5-(3,4-diacetoxyphenyl)-1,3,4-oxadiazol-2-yl]thiomethyl-78-[2-(2-aminothiazol-4-yl)-2-ethoxyiminoacetamido]-3-cephem-4-carboxylate] | 0.78 | 0.0125 | < 0.006 | 0.05 | 0.39 | 0.05 | 0.39 | 0.025 | < 0.006 | 0.0125 | < 0.006 | 0.0125 | 1.56 | < 0.006 | 0.78 | 0.1 | > 100 | 0.05 | 0.1 | – | MIC [18, 26]: 0.2 µg/mL |
| CC(C)O/N=C(\C(=O)N[C@@H]1C(=O)N2C(C(=O)O)=C(CSc3nnc(-c4ccc(O)c(O)c4)o3)CS[C@H]12)c1csc(N)n1 [Ex. 7, sodium 78-[2-(2-aminothiazol-4-yl)-2-isopropoxyiminoacetamido]-3-[5-(3,4-dihydroxyphenyl)-1,3,4-oxadiazol-2-yl]thiomethyl-3-cephem-4-carboxylate] | 1.56 | < 0.006 | 0.0125 | 0.05 | 0.39 | 0.1 | 0.1 | 0.025 | < 0.006 | 0.0125 | < 0.006 | 0.0125 | 1.56 | 0.025 | 1.56 | 0.2 | 50 | < 0.006 | 0.1 | 0.39 | – |
| C=CCO/N=C(\C(=O)N[C@@H]1C(=O)N2C(C(=O)O)=C(CSc3nnc(-c4ccc(O)c(O)c4)o3)CS[C@H]12)c1csc(N)n1 [Ex. 8, sodium 7β-[2-allyloxyimino-2-(2-aminothiazol-4-yl)acetamido]-3-[5-(3,4-dihydroxyphenyl)-1,3,4-oxadiazol-2-yl]thiomethyl-3-cephem-4carboxylate] | 0.78 | < 0.006 | < 0.006 | 0.05 | 0.39 | 0.1 | 3.12 | 0.05 | < 0.006 | 0.0125 | < 0.006 | 0.0125 | 0.78 | 0.0125 | 1.56 | 0.2 | 100 | 0.025 | 0.1 | – | MIC [18, 26]: 0.2 µg/mL |
| Nc1nc(/C(=N/OC2(C(=O)O)CC2)C(=O)N[C@@H]2C(=O)N3C(C(=O)O)=C(CSc4nnc(-c5ccc(O)c(O)c5)o4)CS[C@H]23)cs1 [Ex. 12, disodium 7β-[2-(2-aminothiazol-4-yl)-2-(1-carboxylate-1-cyclopropoxyimino)acetamido]-3-[5-(3,4-dihydroxvphenyl)-1,3,4-oxadiazol-2-vl]thiomethyl-3-cephem-4-carboxylate] | < 0.006 | < 0.006 | – | 0.025 | 0.2 | 0.05 | 0.025 | 0.025 | < 0.006 | 0.025 | < 0.006 | 0.025 | – | 0.0125 | 1.56 | 0.2 | – | < 0.006 | – | 0.39 | MIC ([3]; Enterobacter cloacae, 963, 16 h, read-out: Minimum Inhibitory Concentration (MIC), E. cloacae 963): 0.05 µg/mL; MIC [13, 29]: 12.5 µg/mL; MIC ([17]; AKR17, 16 h): 3.12 µg/mL; MIC [20, 30]: 0.05 µg/mL |
| Nc1nc(/C(=N/OCc2ccccc2)C(=O)N[C@@H]2C(=O)N3C(C(=O)O)=C(CSc4nnc(-c5ccc(O)c(O)c5)o4)CS[C@H]23)cs1 [Ex. 13, sodium 7β-[2-(2-aminothiazol-4-yl)-2-benzyloxyiminoacetamido]-3-[5-(3,4-dihydroxyphenvl)-1,3,4-oxadiazol-2-yl]thiomethyl-3-cephem-4-carboxylate] | 1.56 | < 0.006 | 0.0125 | 0.1 | 0.39 | 0.1 | 0.39 | 0.05 | < 0.006 | 0.025 | < 0.006 | 0.025 | – | 0.0125 | – | – | 50 | 0.025 | – | 0.39 | MIC [13, 29]: 0.39 µg/mL; MIC [15, 29]: 3.12 µg/mL; MIC [16]: 0.39 µg/mL; MIC [20, 30]: 0.2 µg/mL |
